Patent publication US20250381166A1, “Cannabis-Derived Flavonoids And Related Methods” (CANURTA INC., priority 2022, published 2025)

Assays:
[1] = test system: nuclear Arc protein; conditions: 16.7 μM co-applied with recombinant BDNF for 6 h; cited from earlier work
[2] = test system: nuclear Arc; assay: BDNF-induced nuclear Arc, fluorescent immunocytochemistry, primary cortical neurons; assay type: cell-based, mouse; conditions: 10 μM co-treated with BDNF; vs BDNF-alone control
Method: Indirect immunofluorescence detection of antigens was carried out using cortical neurons cultured on poly-L-lysine/laminin coated coverslips in 24-well plates at a density of 0.1′10^6 per well. After experimental treatment, cells were washed twice with phosphate-buffered saline (PBS) and fixed for 30 min at room temperature with 4% paraformaldehyde in PBS. After fixation, cells were washed twice with PBS, permeabilized with PBST (PBS and 0.25% Triton X-100) for 20 min, blocked in blocking solution (5% goat non-immune serum in PBS) for another 30 min, and finally incubated overnight at 4° C. with the first primary antibody in blocking solution. The next day, coverslips were extensively washed with PBS and incubated for 2 hours at room temperature in the appropriate fluorophore-conjugated secondary antibody solution [Alexa Fluor 488-, Alexa Fluor 594, or Alexa Fluor 647-conjugated secondary antibody (Molecular Probes, Invitrogen) in blocking solution]. After washes with PBS, the coverslips were incubated again overnight in primary antibody solution for the second antigen, and the procedure for conjugation of the fluorophore-conjugated secondary antibody was repeated as above. Finally, cell nuclei were counterstained with 4′,6-diamidino-2-phenylindole (DAPI), and coverslips were mounted on glass slides with ProLong Antifade reagent (Invitrogen).
Cells cultured on coverslips from three independent biological replicates were imaged with a Nikon Eclipse Ti2-E inverted microscope equipped with a motorized stage, image stitching capability, and a 60× objective (Nikon Instruments, Melville, NY). Image analysis was performed with ImageJ and NIS Elements and the following procedure was used to quantify nuclear Arc level in response to BDNF-TrkB signaling. First, original raw tiff files were opened and the nucleus of all neurons in the image was located based on MAP2 immunostaining, then average pixel intensity corresponding to Arc immunofluorescence was measured for a 30-pixel spot positioned at the center of the nuclear compartment. […]

[3] = test system: A172 GBM cells; assay: Boyden Chamber invasion assay; assay type: cell-based; conditions: 10 μM; for GBM cell invasion: 24 hours
Method: FIG. 9. […] Boyden Chamber assay was performed on A172 GBM cells to analyze minimal doses (10 μM) of TrkB inhibitors on preventing GBM cell invasion. Cells were pretreated in low serum media for 24 hours. Bottoms of transwell inserts were coated with fibronectin and tops were coated with Matrigel prior to cells being seeded with treatment media (low serum; n=3 per treatment). After 24 hours, cells were cleaned off the top of the Matrigel, and cells that invaded into the pores of the transwell were stained with 1% Crystal Violet and (A) imaged at 20×.

[4] = test system: U87 GBM cells; assay: Scratch migration analysis, U87; conditions: 24 hours of treatment
[5] = test system: A172 GBM cells; assay: LDH cytotoxicity assay, A172; assay type: cell-based; conditions: 24 hours, compared to DMSO
[6] = test system: U87 GBM cells; assay: LDH cytotoxicity assay, U87; assay type: cell-based; conditions: 24 hours, compared to DMSO
[7] = test system: prostaglandin E2 production; conditions: inhibitors of prostaglandin E2 production; cited from earlier work
[8] = test system: A172 GBM cells; assay: Scratch migration analysis, A172; conditions: 24 hours of treatment
[9] = molecular target: T1, GPR150 (Homo sapiens, UniProt Q8NGU9); assay: PRESTO-Tango GPCR assay, GPR150; assay type: cell-based; conditions: 10 μM
T1 construct: expressed in transfected cells

[10] = test system: Neuro2a cells stably expressing Ntrk2-Myc-FLAG; assay: Neurite outgrowth assessment; assay type: cell-based; conditions: 10 μM with BDNF
Method: For neurite outgrowth assay, Neuro2a cells were cultured in DMEM [supplemented with 10% HyClone FetalClone II serum (Cytiva, Global Life Sciences Solutions, Marlborough, MA), penicillin (50 units/ml), and streptomycin (50 μg/ml)] and transfected overnight using Lipofectamine 2000 (Invitrogen) according to the manufacturer's protocol.
Neuro2A cells transfected with a pCMV6-Ntrk2-Myc-DDK (FLAG) construct were selected with G418 (Geneticin) to produce a stable cell line that constitutively expresses tagged-TrkB. For neurite outgrowth assessment, cells were seeded on 15 mm glass coverslips in 12-well plates at a density of 2.0×10^4 per well. […] Phase contrast digital images were collected with a 20× objective 48 h after plating and the total number of viable cells, total number of neurites, and cells with neurites longer than 2 cells in diameter were counted (five fields per dish, three wells per condition).

[11] = test system: Arc mRNA; assay: Arc mRNA real-time reverse transcriptase PCR, primary cortical neurons; assay type: cell-based, mouse; conditions: 10 μM with BDNF; vs BDNF-alone control
[12] = test system: Arc protein; assay: BDNF-induced Arc expression, western blot, primary cortical neurons; assay type: cell-based, mouse; conditions: BDNF co-treatment, tested 1 to 20 μM
Method: The following procedure was used to quantify western blot analyses. First, equal quantity of protein lysate was analyzed by SDS-PAGE for each biological replicate. Second, the exposure time of the film to the ECL chemiluminescence was the same for each biological replicate. Third, all the exposed films were scanned on a HP Laser Jet Pro M377dw scanner in grayscale at a resolution of 300 dpi. Fourth, the look-up table (LUT) of the scanned tiff images was inverted and the intensity of each band was individually estimated using the selection tool and the histogram function in Adobe Photoshop CC 2021 software. Finally, the intensity of each band was divided by the intensity of its respective loading control (b-actin) to provide the normalized value used for statistical analysis.

[13] = test system: Ras-Raf-MEK-MAPK and PI3K/AKT/mTOR cascades; assay: Signaling downstream of TrkB, western blot, primary cortical neurons; conditions: BDNF-induced increase; 0, 1, 5, 10, 20 μM
Method: Developing cerebral cortex from E16.5 CD-1 mouse embryos were dissected and then dissociated in trypsin solution for 15 min followed by three washes with phosphate-buffered saline (PBS). Trypsinized tissue was gently triturated to produce single cell suspension. Next, cells were seeded in poly-L-lysine/laminin coated 6-well plates at a density of 1.5×10^6 per well and maintained in Neurobasal medium containing B27 supplement (2%, Invitrogen, Grand Island, NY), penicillin (50 U/ml, Invitrogen), streptomycin (50 μg/ml, Invitrogen) and glutamine (1 mM, Sigma). For experiments involving BDNF (PeproTech, Rocky Hill, NJ), the growth factor was added directly to the culture medium at a final concentration of 100 ng/ml for the indicated period of time.
For western blot analyses, cells were collected by scraping in ice-cold radioimmunoprecipitation assay (RIPA) buffer (50 mM tris-HCl [pH 8.0], 300 mM NaCl, 0.5% Igepal-630, 0.5% deoxycholic acid, 0.1% SDS, 1 mM EDTA) supplemented with a cocktail of protease inhibitors (Complete Protease Inhibitor without EDTA, Roche Applied Science, Indianapolis, IN) and phosphatase inhibitors (Phosphatase Inhibitor Cocktail 3, Sigma-Aldrich). One volume of 2× Laemmli buffer (100 mM tris-HCl [pH 6.8], 4% SDS, 0.15% bromophenol blue, 20% glycerol, 200 mM b-mercaptoethanol) was added and the extracts were boiled for 5 min. Samples were adjusted to an equal concentration after protein concentrations were determined using the BCA assay (Pierce, Thermo Fisher Scientific). Lysates were separated using SDS-PAGE (polyacrylamide gel electrophoresis) and transferred to a nitrocellulose membrane. After transfer, the membrane was blocked in TBST (tris-buffered saline and 0.1% Tween 20) supplemented with 5% nonfat powdered milk and probed with the indicated primary antibody at 4° C. overnight. After washing with TBST, the membrane was incubated with the appropriate secondary antibody and visualized using enhanced chemiluminescence (ECL) reagents according to the manufacturer's guidelines (Pierce, Thermo Fisher Scientific).

[14] = test system: U87 GBM cells; assay: AlamarBlue cell viability, U87; assay type: cell-based; conditions: 24, 48 and 72 hours, vs DMSO
Method: (§1) FIG. 6. Cannflavins A and B reduce the viability of Glioblastoma cells. Cell viability was measured using an AlamarBlue reaction after 24, 48, and 72 hours of treatment. […] Graphs represent mean±SEM.

[15] = test system: A172 GBM cells; assay: AlamarBlue cell viability, A172; assay type: cell-based; conditions: 24, 48 and 72 hours, vs DMSO
Method: as §1

[16] = test system: medulloblastoma cell; conditions: TrkB inhibition; cited from earlier work
[17] = test system: Mapk; assay: Mapk phosphorylation, western blot, Neuro2a cells stably expressing Ntrk2-Myc-FLAG; assay type: cell-based; conditions: with BDNF
[18] = test system: 320 distinct nonolfactory human GPCRs; assay: PRESTO-Tango GPCR assay (GPCRome panel); conditions: 10 μM; quadruplicate

T1 sequence (Q8NGU9 whole entry): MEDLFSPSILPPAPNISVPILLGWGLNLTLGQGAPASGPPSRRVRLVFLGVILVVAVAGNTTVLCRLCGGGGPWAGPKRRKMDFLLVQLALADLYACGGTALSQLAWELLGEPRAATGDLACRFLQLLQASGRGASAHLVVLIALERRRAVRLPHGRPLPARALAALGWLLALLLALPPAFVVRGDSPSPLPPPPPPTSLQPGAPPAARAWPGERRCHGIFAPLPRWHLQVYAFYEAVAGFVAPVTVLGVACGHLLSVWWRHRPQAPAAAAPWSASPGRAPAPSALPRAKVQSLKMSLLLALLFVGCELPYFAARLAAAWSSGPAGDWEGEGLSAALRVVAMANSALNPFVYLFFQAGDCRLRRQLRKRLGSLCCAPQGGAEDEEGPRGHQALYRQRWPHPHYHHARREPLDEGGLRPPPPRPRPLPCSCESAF

In the case of `O=c1c(-c2ccc(O)cc2)coc2cc(O)ccc12` [daidzein], the “nuclear Arc protein level” value [1] is given as “enhance nuclear Arc protein level above the control measure” and the “percentage of nuclei with Arc expression above threshold (Arc-positive neuronal abundance)” value (“percentage of nuclei” for short) [2] is given as “moderate increase”.

In the case of `O=c1cc(-c2ccccc2)oc2c(O)c(O)ccc12` [7,8-DHF, 7,8-dihydroxyflavone], the “nuclear Arc protein level” value [1] is given as “enhance nuclear Arc protein level above the control measure”.

In the case of `COc1cc(-c2cc(=O)c3c(O)c(CC=C(C)C)c(O)cc3o2)ccc1O` [cannflavin B], the GBM cell invasion [3] is reported as “decrease in GBM cell invasion”, the “efficiency in reducing cell invasion compared with the other TrkB inhibitors” value ([3]; no statistical scores) is reported as “tends to be more efficient in reducing cell invasion than cannflavin A and ANA-12” and the cell migration [4] is reported as “reduce the migration”. The “LDH release / cell necrosis” value [5] was “slight increase in LDH release”, the “LDH release / cell necrosis” value [6] was “slight increase in LDH release” and the “anti-inflammatory potency relative to aspirin” value [7] was “thirty times more potent than aspirin”. For the same compound, the cell migration [8] was “reduce the migration”, the “increase of GPR150 activity from baseline” value [9] was 4.4 fold-change and the BDNF-induced neurite outgrowths [10] was “reduce”. For the same compound, the “Arc mRNA abundance” value [11] was “prevent induction of Arc mRNA expression”, the “concentrations resulting in significantly less Arc protein abundance than the BDNF-alone control” value [12] was 1 to 20 µM and the P-Akt level [13] was “sharply reduced”. For the same compound, the P-MAPK level [13] was “sharply reduced”, the P-mTOR level [13] was “sharply reduced” and the P-rpS6 level [13] was “sharply reduced”. The “cell viability (AlamarBlue)” value [14] was “reduced cell viability” and the “cell viability (AlamarBlue)” value [15] was “reduced cell viability”.

In the case of `Oc1cc(O)c2c(c1)O[C@H](c1cc(O)c(O)c(O)c1)[C@H](O)C2` [ECGC, (−)-epigallocatechin], the “nuclear Arc protein level” value [1] is given as “enhance nuclear Arc protein level above the control measure” and the “percentage of nuclei” value [2] is given as “moderate increase”.

In the case of `O=C(Nc1ccccc1C(=O)NC1CCCCNC1=O)c1cc2ccccc2s1` (stereo not shown) [ANA-12], the GBM cell invasion [3] is given as “decrease in GBM cell invasion”, the medulloblastoma cell survival [16] is given as “reduced medulloblastoma cell survival by inducing apoptosis” and the “number of cells with neurites twice the length of the cell” value ([10]; 24-hour treatment) is given as “decrease”. The “total number of neurites per field” value ([10]; 24-hour treatment) was “decrease”, the viable cells ([10]; 24-hour treatment) was “decrease” and the P-Mapk levels [17] was “did not observe a decrease”. For the same compound, the “cell viability (AlamarBlue)” value [14] was “reduced cell viability” and the “cell viability (AlamarBlue)” value [15] was “reduced cell viability”.

In the case of `O=c1c(-c2ccc(O)cc2)coc2cc(O)cc(O)c12` [genistein], the “nuclear Arc protein level” value [1] is given as “enhance nuclear Arc protein level above the control measure” and the “percentage of nuclei” value [2] is given as “moderate increase”.

In the case of `COc1cc(-c2cc(=O)c3c(O)c(C/C=C(\C)CCC=C(C)C)c(O)cc3o2)ccc1O` [cannflavin A], the GBM cell invasion [3] is reported as “reduce invasion”, the cell migration [4] is reported as “reduce the migration” and the “LDH release / cell necrosis” value [5] is reported as “slight increase in LDH release”. The “LDH release / cell necrosis” value [6] was “slight increase in LDH release”, the “anti-inflammatory potency relative to aspirin” value [7] was “thirty times more potent than aspirin” and the cell migration [8] was “reduce the migration”. The “agonist activity on GPCRs” value [18] was “no effect on any of the 322 different GPCRs tested”, the BDNF-induced neurite outgrowths [10] was “reduce” and the “Arc mRNA abundance” value [11] was “prevent induction of Arc mRNA expression”. The “concentrations resulting in significantly less Arc protein abundance than the BDNF-alone control” value [12] was 10 to 20 µM, the P-Akt level [13] was “sharply reduced” and the P-MAPK level [13] was “sharply reduced”. For the same compound, the P-mTOR level [13] was “sharply reduced”, the P-rpS6 level [13] was “sharply reduced” and the “cell viability (AlamarBlue)” value [14] was “reduced cell viability”. The “cell viability (AlamarBlue)” value [15] was “reduced cell viability”.

For `O=C(O)[C@H]1O[C@@H](Oc2cc3oc(-c4ccccc4)cc(=O)c3c(O)c2O)[C@H](O)[C@@H](O)[C@@H]1O` [baicalin], the “nuclear Arc protein level” value [1] is given as “enhance nuclear Arc protein level above the control measure”.
